Results published in patent publication US9045415B2, “Targeting of EWS-FLI1 as anti-tumor therapy” (Georgetown University, priority 2006, dated 2015).

Legend:
[1] = system: neuroblastoma SKNAS cells; assay: Monolayer cell growth, neuroblastoma; type: cell-based; details: SK-N-AS, 72 hours continuous presence
From the text: FIGS. 8A-E show E9RP inhibits ESFT cell growth. In FIGS. 8A and 8B, E9RP is the peptide region of RHA (SEQ ID NO:29) fused to the Penetratin peptide (from the Antennapedia homeodomain; SEQ ID NO:34) and contains amino-terminal fluorescein (FITC). […] Neither lipids nor electricity were used for transduction of peptides into cells. Confocal microscopy identified peptide throughout cells with nuclear uptake. Nuclear uptake was confirmed by DAPI staining. […] Cell lines were placed in 96-well plates with either vehicle alone (●), or E9RP (10 μM) on days 0, 3 and 5 (▴). No lipid or other transfection method was utilized. This represents two experiments with similar results. FIG. 8D depicts dose response of ESFT 1 to either wild-type or single amino-acid mutant peptides. (▪) wild-type E9RP, (E9R (SEQ ID NO:29) fused to the Penetratin peptide (SEQ ID NO:34)), (▾)(E9RP (P2A peptide (SEQ ID NO:30) fused to the Penetratin peptide (SEQ ID NO:34)), (▴)E9RP (D5A peptide (SEQ ID NO:31) fused to the Penetratin peptide (SEQ ID NO:34)). Growth normalized to treating cells with the 16 aa Antp sequence alone (SEQ ID NO:34). FIG. 8E is a comparison of wild-type versus mutant peptides in ESFT and NB cells.
In FIG. 13A, recombinant EWS-FLI1 was treated with NSC635437 for 30 minutes. GST-RHA (630-1020) was added and the complexes were then precipitated with antibody to EWS-FLI1 and Protein G beads. Resolved complexes showing the immunoprecipitated complex control without compound are in lanes 3 (0.1% DMSO) and 5 (0.01% DMSO). […] ESFT TC32 (◯) and neuroblastoma SK-N-AS (▪) were grown for 72 hours in the continuous presence of NSC635437. Cells were incubated in MTT reagent for 4 hours and the dried precipitate was dissolved isopropanol and the absorbance read at 570 nm. Each cell line was standardized to the growth of the DMSO control.
FIG. 30 provides data to show E9R peptide prevents EWS-FLI1 binding to RHA with specific detrimental effects upon ESFT growth and transformation. […] Scale bar equals 20 μm. […] Only expression of EGFP-E9R in TC71 reduced anchorage independent growth. […] Scale bar equals 20 μm.

[2] = system: non-transformed HEK293 cells; assay: Cell growth, HEK293; type: cell-based; details: TC32 vs HEK293
Experimental: (§1) FIG. 33 provides data showing YK-4-279 is potent and specific inhibitor of ESFT. […] Cell number was measured by MTT or WST reduction after seven days in culture. […] FIG. 33D cell lines expressing EWS-FLI1 compared to non-EWS-FLI1 malignant cell lines following 3 days in culture to establish the IC50 using WST assay. […] Graph plots level of fluorescence in treated divided by untreated lysate. […] Scale bar equals 200 μm.

[3] = system: EWS-FLI1 responsive NROB1 promoter; assay: Luciferase reporter assay of EWS-FLI1 responsive NROB1 promoter in COS7 cells; type: cell-based; details: 3 and 10 μM, 18 hours
Experimental: FIG. 32 provides data showing YK-4-279 reduces EWS-FLI1 functional activity. FIG. 32A concerns TC32 cells that were treated with YK-4-279 and resolved protein lysates and that were immunoblotted for co-precipitated RHA (top), EWS-FLI1 (middle), or total RHA (bottom).
EGFP-E9R fusion constructs prepared as published (Frangioni, J. V. & Neel, B. G. Use of a general purpose mammalian expression vector for studying intracellular protein targeting: identification of critical residues in the nuclear lamin A/C nuclear localization signal. J Cell Sci 105 (Pt 2), 481-488 (1993)). We transiently transfect the NR0B131 luciferase reporter and full-length EWS-FLI1 into COS-7 cells with Fugene-6 (Roche) and luciferase assay performed per manufacturer's protocol (Dual Luciferase Kit, Promega). Six hours following transfection, cells were treated with either 3 or 10 μM YK-4-279. Cell lysates luciferase activity levels were standardized to renilla activity from a non-affected promoter and plotted as relative luciferase activity (RLA).

NFκB responsive promoter = assay: NFκB responsive reporter in COS7 cells activated with PMA; type: cell-based; details: after PMA
Experimental: FIG. 38A provides data showing COST cells transfected with an NFκB reporter construct followed by stimulation with PMA. Cells were treated with YK-4-279 following PMA treatment. Cell lysates were analyzed for NFκB induced luciferase activity as standardized to LTR activated renilla luciferase.

[4] = system: ESFT xenografts (TC71 and CHP-100); assay: ESFT orthotopic xenografts treated with YK-4-279; type: in vivo, mice
Experimental: Xenografts were established with injection of either ESFT (CHP-100 or TC71) or Prostate cancer (PC3) cells. […] Single experiment growth curves depicted are representative of five independent experiments. […] Tumor volumes at day 14 after treatment initiation compared across 5 experiments (DMSO n=19, YK-4-279 n=25, p<0.0001, by Mann-Whitney test).
One million TC71 or CHP-100 cells in 100 μL HBSS were injected orthotopically into the gastrocnemius muscle of 4-8 week old SCID/bg mice (Taconic, Germantown, N.Y.). Prostate cancer xenografts were established by subcutaneous injection of 5 million PC3 cells into the flanks of 4-8 week old nude mice (Taconic). Mice were randomized to receive three times per week intraperitoneal injections of DMSO, YK-4-279 at 1.5 mg/dose when tumors were palpable. Each of the animal experiments was begun with 10 mice that were randomized into treatment and control groups when the tumors reached palpable size. In the control groups some tumors exceeded the IACUC maximal size (2 cm in any dimension) and were euthanized prior to day 14 and thus not included in the day 14 analysis (FIG. 6c). Tumor length and width were measured every 2-4 days and volume was calculated using the formula […] where D is the longest diameter and d is the shorter diameter. Xenograft studies were approved by the Memorial Sloan-Kettering Cancer Center Institutional Animal Care and Use Committee.

[5] = system: non-transformed keratinocytes (HFK) and ectocervical cells (HEC); assay: Viability (WST), non-transformed HFK and HEC; type: cell-based; details: Keratinocyte, 72 h; treated for 3 days
Experimental: FIG. 39A provides data showing HEC and HFK, non-transformed endocervical cells and keritinocytes, treated with YK-4-279 for 72 hours and assayed for viability using WST reduction. FIG. 39B provides data showing TC71 cells treated for 16 hours with YK-4-279 or doxorubicin. Lysates were assayed for cleavage of AMC-DEVD by induced caspase-3 and fluorescence was measured. FIG. 39C provides data showing that RHA reduced TC71 cells were more resistant to YK-4-279 treatment than wild-type cells. FIG. 39D provides data showing an shRNA tet-inducible expression vector stably transfected into A673 (ESFT) cells to reduce EWS-FLI1 levels. FIG. 39E provides data showing that EWS-FLI1 reduced A673 cells were more resistant to YK-4-279 treatment than wild-type cells.

[6] = system: cell lines that lack EWSFLI1; assay: Cell growth (WST), cell lines that lack EWS-FLI1; type: cell-based; details: 72 h, 3 days
Experimental: as §1

Row | SMILES | cell growth (MTT) [1] | difference in IC50, ESFT cells compared to HEK293 [2] [fold] | NROB1 promoter activity [3] | NFκB responsive promoter activity (NFκB responsive promoter) | tumor growth ([4]; 60-75 mg/kg) | tumor growth rate ([4]; CHP-100, 1.5 mg/dose i.p. three times per week) | increase in caspase-3 activity in tumors compared to control animals ([4]; CHP-100 xenograft tumors, immunohistochemistry) [fold] | overall response, tumor volumes at day 14, five experiments ([4]; TC71 and CHP-100, 1.5 mg/dose) | pathological analysis of treated animals ([4]; mouse, in vivo) | IC50 [5] [µM] | IC50 [6] [µM]
1 | O=C(CC1(O)C(=O)Nc2c(Cl)ccc(Cl)c21)c1ccc(Cl)cc1 (centres unmarked) [NSC635437, 4,7-Dichloro-3-[2-(4-chlorophenyl)-2-oxoethyl]-3-hydroxyl-1,3-dihydro-2H-indol-2-one] | not neuroblastoma cell growth |  |  |  |  |  |  |  |  |  | 
2 | COc1ccc(C(=O)CC2(O)C(=O)Nc3c(Cl)ccc(Cl)c32)cc1 (centres unmarked) [YK-4-279, 4,7-Dichloro-3-hydroxy-3-[2-(4-methoxyphenyl)-2-oxoethyl]-1,3-dihydro-2H-indol-2-one] |  | 10 | dose-dependent decrease in promoter activity | did not affect the NFκB responsive promoter | significantly reduced tumor growth | reduced | 3 | marked overall tumor reduction | did not show any signs of toxicity except changes related to IP injection | > 30 | > 25
